Data on ten compounds can be found in patent EP4603107A1, “BIOORTHOGONAL, ANILINIUM BASED CLEAVABLE TETRAZINES” (University of Copenhagen, priority 2024, dated 2025).

Each structure is given as a SMILES string.

Data set [1] can be described thus: Click kinetics, stopped-flow measurement of tetrazine ligation with equatorial TCO-PEG4. The following applies: PBS (10mM), 37 °C, TCO 1 mM, tetrazine 100 µM, absorbance at 535 nm. The method, then:
Nine tetrazines of formula (I) (Table 1) were clicked with equatorial TCO-PEG4 (rel-(1R-4E-pR)-cyclooct-4-en-1-yl (2-(2-(2-(2-hydroxyethoxy)ethoxy)ethoxy)ethyl)carbamate).
Stopped-flow measurements were performed using an SX20-LED stopped-flow spectrophotometer (Applied Photophysics) equipped with a 535 nm LED (optical pathlength 10 mm, full width half-maximum 34 nm) to monitor the characteristic tetrazine visible light absorbance (520-540 nm).
A stock solution of eqTCO-PEG4 in DMSO was prepared at an approximate concentration above 100 mM. The exact concentration was determined by absorbance titration with 3,6-di-2-pyridyl-1,2,4,5-tetrazine. Stock solutions of tetrazines in DMSO were prepared at a concentration of 10 mM. These initial stock solutions were diluted into PBS (10mM) before stopped-flow analysis to reach a final TCO concentration of 1 mM and a tetrazine concentration of 100 µM. The reagent syringes were loaded with solutions of the Tz and eqTCO-PEG4, and the instrument was primed. Subsequent data were collected in triplicate to sextuplicate for each tetrazine. Reactions were conducted at 37 °C and recorded automatically at the time of acquisition. Data sets were analyzed by fitting an exponential decay using Prism 6 (Graphpad) to calculate the observed pseudo-first-order rate constants that were converted into second-order rate constants by dividing with the concentration of the excess TCO compound. Table 1: second rate order constant (M-1s-1) for the ligation between nine tetrazines and equatorial TCO-PEG4 (rel-(1R-4E-pR)-cyclooct-4-en-1-yl (2-(2-(2-(2-hydroxyethoxy)ethoxy)ethoxy)ethyl)carbamate).

Data set [2] can be described thus: Chemical stability in PBS (HPLC). It counts as physicochemical. The following applies: HPLC at RT, 9:1 PBS/MeCN solution, 1.0-1.5 mM Tz, 254 nm; read-out: PBS stability t1/2. The method, then: Ten tetrazines of formula (I) (Table 2) were tested in relation to chemical stability in PBS. The results are shown in Table 2 for the chemical half-life was measured by HPLC at RT, in 9:1 PBS/MeCN solution, using 1.0-1.5 mM Tz (a); based on average peak intensities of the corresponding Tz and the corresponding oxadiazoles (the degradation product), at 254 nm.

For the compound `COc1ccc([N+](C)(C)Cc2nnc(-c3ccccc3)nn2)cc1.[Br-]` [Compound 26, 4-methoxy-N,N-dimethyl-N-((6-phenyl-1,2,4,5-tetrazin-3-yl)methyl)benzenaminium bromide], the “second order rate constant” value in data set [1] came to 670 M⁻¹ s⁻¹. For the same compound, the half-life in data set [2] turned out to be 1.87 ± 0.357 h.

On to `Cc1ccc(-c2nnc(C[N+](C)(C)c3ccccc3)nn2)cc1.[Br-]` [Compound 22, N,N-dimethyl-N-((6-(p-tolyl)-1,2,4,5-tetrazin-3-yl)methyl)benzenaminium bromide], for which the “second order rate constant” value in data set [1] is 480 M⁻¹ s⁻¹. Besides, the half-life in data set [2] stood at 1.783 ± 0.0167 h.

Regarding `COc1ccc(-c2nnc(C[N+](C)(C)c3ccccc3)nn2)cc1.[Br-]` [Compound 23, N-((6-(4-methoxyphenyl)-1,2,4,5-tetrazin-3-yl)methyl)-N,N-dimethylbenzenaminium bromide], the “second order rate constant” value in data set [1] is 370 M⁻¹ s⁻¹. In addition, the half-life in data set [2] is 2.58 ± 0.683 h.

For the compound `COc1ccc(-c2nnc(C[N+](C)(C)c3ccc(OC)cc3)nn2)cc1.[Br-]` [Compound 29, 4-methoxy-N-((6-(4-methoxyphenyl)-1,2,4,5-tetrazin-3-yl)methyl)-N,N-dimethylbenzenaminium bromide], the “second order rate constant” value in data set [1] came out at 340 M⁻¹ s⁻¹. Further, in data set [2], the half-life was 9.365 ± 0.0125 h.

As to `COc1cccc(-c2nnc(C[N+](C)(C)c3ccccc3)nn2)c1.[Br-]` [Compound 19, N-((6-(3-methoxyphenyl)-1,2,4,5-tetrazin-3-yl)methyl)-N,N-dimethylbenzenaminium bromide], the “second order rate constant” value in data set [1] was 790 M⁻¹ s⁻¹. Moreover, the half-life in data set [2] is 0.803 ± 0.00833 h.

As to `C[N+](C)(Cc1nnc(-c2ccccc2)nn1)c1ccccc1.[Br-]` [Compound 21, N,N-dimethyl-N-((6-phenyl-1,2,4,5-tetrazin-3-yl)methyl)benzenaminium bromide], the “second order rate constant” value in data set [1] came to 650 M⁻¹ s⁻¹. The half-life in data set [2] was found to be 0.9667 ± 0.00833 h.

In the case of `Cc1ccc([N+](C)(C)Cc2nnc(-c3ccccc3)nn2)cc1.[Br-]` [Compound 25, N,N,4-trimethyl-N-((6-phenyl-1,2,4,5-tetrazin-3-yl)methyl)benzenaminium bromide], the “second order rate constant” value in data set [1] was determined as 620 M⁻¹ s⁻¹. Besides, the half-life in data set [2] came out at 1.15 ± 0.1 h.

Regarding `C[N+](C)(Cc1nnc(-c2ccc(F)cc2)nn1)c1ccccc1.[Br-]` [Compound 20, N-((6-(4-fluorophenyl)-1,2,4,5-tetrazin-3-yl)methyl)-N,N-dimethylbenzenaminium bromide], the “second order rate constant” value in data set [1] was 580 M⁻¹ s⁻¹. For the same compound, the half-life in data set [2] amounted to 0.797 ± 0.0583 h.

In the case of `C[N+](C)(Cc1nnc(-c2ccccc2)nn1)c1ccc(O)cc1.[Br-]` [Compound 27, 4-hydroxy-N,N-dimethyl-N-((6-phenyl-1,2,4,5-tetrazin-3-yl)methyl)benzenaminium bromide], the “second order rate constant” value in data set [1] amounted to 620 M⁻¹ s⁻¹. Further, the half-life in data set [2] stood at 5.19 ± 1.15 h.

On to `C[N+](C)(Cc1nnc(-c2ccc(O)cc2)nn1)c1ccccc1.[Br-]` [Compound 24, N-((6-(4-hydroxyphenyl)-1,2,4,5-tetrazin-3-yl)methyl)-N,N-dimethylbenzenaminium bromide], for which the half-life in data set [2] is 4.95 ± 0.1 h.
